The target of the test is Sodium-dependent serotonin transporter (Rattus norvegicus, UniProt P31652). As to the kind of experiment: In vitro Binding Affinity Assay. To be noted: pH 7.7; 25 °C. The method, then:
The assay was performed in accordance with the method described by Owens et al. with slight modifications. Rat cerebral cortex was homogenized in 30 volumes of ice-cold 50mM Tris-HCl containing 150mM NaCl and 5mM KCl, pH 7.7, at 25°C and centrifuged at 20,000 x g for 20 min. Pellet was resuspended in 30 volumes of buffer and centrifuged again for 2 more times. The mixture of 240uL of the tissue suspension, 30uL of 1µM imipramine, 30uL of 1nM [3H]-citalopram and 100µL of the analyzed compound (10^-10 to 10^-4M) were incubated at 22°C for 1 h. Incubations were terminated by vacuum filtration and washed twice with 100µL of ice-cold buffer. The radioactivity was measured using a WALLAC 1409 DSA liquid scintillation counter.
Chain of Sodium-dependent serotonin transporter (P31652 whole entry): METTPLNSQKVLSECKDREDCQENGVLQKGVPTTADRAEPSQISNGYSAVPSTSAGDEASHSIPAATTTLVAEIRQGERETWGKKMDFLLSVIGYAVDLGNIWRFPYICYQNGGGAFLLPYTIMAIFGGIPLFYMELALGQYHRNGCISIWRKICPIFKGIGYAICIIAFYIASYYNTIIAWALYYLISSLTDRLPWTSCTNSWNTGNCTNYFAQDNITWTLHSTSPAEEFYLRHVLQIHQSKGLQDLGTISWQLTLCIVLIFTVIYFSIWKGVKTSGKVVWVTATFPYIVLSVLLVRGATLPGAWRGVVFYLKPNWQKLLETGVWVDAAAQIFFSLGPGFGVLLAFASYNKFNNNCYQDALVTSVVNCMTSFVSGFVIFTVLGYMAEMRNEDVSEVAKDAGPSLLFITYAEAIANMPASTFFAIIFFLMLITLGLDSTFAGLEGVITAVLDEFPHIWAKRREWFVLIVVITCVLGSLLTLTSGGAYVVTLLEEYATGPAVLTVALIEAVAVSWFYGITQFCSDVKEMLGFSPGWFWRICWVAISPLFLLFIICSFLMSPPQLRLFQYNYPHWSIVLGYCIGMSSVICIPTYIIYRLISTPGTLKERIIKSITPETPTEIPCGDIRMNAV
As a reminder, the Ki is a dissociation constant, usually derived from enzyme kinetics or from competition with a known ligand. The low end stands for higher affinity, the high end for lower affinity. `CCCCN1CCN(c2ccc3cc([N+](=O)[O-])ccc3n2)CC1` [2-(4-Butyl-piperazin-1-yl)-6-nitroquinoline (4)]: the Ki amounted to 24 nM.

`CCCCCCCCCCN1CCN(c2ccc3cc([N+](=O)[O-])ccc3n2)CC1` [2-(4-Decyl-piperazin-1-yl)-6-nitroquinoline (10)] came in with an inhibition constant Ki of 4.5 nM.

In turn, `CCCCCCCCCCCCN1CCN(c2ccc3cc([N+](=O)[O-])ccc3n2)CC1` [2-(4-Dodecyl-piperazin-1-yl)-6-nitroquinoline (12)] displayed a Ki of 16.1 nM.

For the compound `CCN1CCN(c2ccc3cc([N+](=O)[O-])ccc3n2)CC1` [2-(4-Ethyl-piperazin-1-yl)-6-nitroquinoline (2)], the inhibition constant Ki amounted to 86.1 nM.

Consider `CCCCCCCN1CCN(c2ccc3cc([N+](=O)[O-])ccc3n2)CC1` [2-(4-Heptyl-piperazin-1-yl)-6-nitroquinoline (7)], for which the Ki came out at 54.1 nM.

On to `CCCCCCN1CCN(c2ccc3cc([N+](=O)[O-])ccc3n2)CC1` [2-(4-Hexyl-piperazin-1-yl)-6-nitroquinoline (6)], for which the Ki came out at 72.9 nM.

`CN1CCN(c2ccc3cc([N+](=O)[O-])ccc3n2)CC1` [2-(4-Methyl-piperazin-1-yl)-6-nitroquinoline (1)] returned an inhibition constant Ki of 1300 nM.

Compound `CCCCCCCCCN1CCN(c2ccc3cc([N+](=O)[O-])ccc3n2)CC1` [2-(4-Nonyl-piperazin-1-yl)-6-nitroquinoline (9)] returned an inhibitory constant (Ki) of 1.8 nM.

For the compound `CCCCCCCCN1CCN(c2ccc3cc([N+](=O)[O-])ccc3n2)CC1` [2-(4-Octyl-piperazin-1-yl)-6-nitroquinoline (8)], the affinity, expressed as Ki, was 20.8 nM.

For the compound `CCCCCN1CCN(c2ccc3cc([N+](=O)[O-])ccc3n2)CC1` [2-(4-Pentyl-piperazin-1-yl)-6-nitroquinoline (5)], the Ki is 80.5 nM.

Consider `CCCN1CCN(c2ccc3cc([N+](=O)[O-])ccc3n2)CC1` [2-(4-Propyl-piperazin-1-yl)-6-nitroquinoline (3)], for which the Ki amounted to 496 nM.

On to `CCCCCCCCCCCN1CCN(c2ccc3cc([N+](=O)[O-])ccc3n2)CC1` [2-(4-Undecyl-piperazin-1-yl)-6-nitroquinoline (11)], for which the inhibition constant Ki amounted to 12.6 nM.

The values are drawn from BindingDB's records for doi:10.1111/cbdd.12116 (University of Troms&#163, 2013).
